Tests used:
human TLR7 = biological target: T1, human TLR7 (Homo sapiens, UniProt Q9NYK1); test: Cell-based TLR 7/8 assay, HEK-Blue TLR7 cells (SEAP reporter); conditions: based on Compound concentration only; Compounds formulated as SNEs; read-out: huTLR7 EC50 (converted)
T1 construct: host or cells: HEK-Blue 293 cells expressing human TLR7
T1 sequence (Q9NYK1 27-1049): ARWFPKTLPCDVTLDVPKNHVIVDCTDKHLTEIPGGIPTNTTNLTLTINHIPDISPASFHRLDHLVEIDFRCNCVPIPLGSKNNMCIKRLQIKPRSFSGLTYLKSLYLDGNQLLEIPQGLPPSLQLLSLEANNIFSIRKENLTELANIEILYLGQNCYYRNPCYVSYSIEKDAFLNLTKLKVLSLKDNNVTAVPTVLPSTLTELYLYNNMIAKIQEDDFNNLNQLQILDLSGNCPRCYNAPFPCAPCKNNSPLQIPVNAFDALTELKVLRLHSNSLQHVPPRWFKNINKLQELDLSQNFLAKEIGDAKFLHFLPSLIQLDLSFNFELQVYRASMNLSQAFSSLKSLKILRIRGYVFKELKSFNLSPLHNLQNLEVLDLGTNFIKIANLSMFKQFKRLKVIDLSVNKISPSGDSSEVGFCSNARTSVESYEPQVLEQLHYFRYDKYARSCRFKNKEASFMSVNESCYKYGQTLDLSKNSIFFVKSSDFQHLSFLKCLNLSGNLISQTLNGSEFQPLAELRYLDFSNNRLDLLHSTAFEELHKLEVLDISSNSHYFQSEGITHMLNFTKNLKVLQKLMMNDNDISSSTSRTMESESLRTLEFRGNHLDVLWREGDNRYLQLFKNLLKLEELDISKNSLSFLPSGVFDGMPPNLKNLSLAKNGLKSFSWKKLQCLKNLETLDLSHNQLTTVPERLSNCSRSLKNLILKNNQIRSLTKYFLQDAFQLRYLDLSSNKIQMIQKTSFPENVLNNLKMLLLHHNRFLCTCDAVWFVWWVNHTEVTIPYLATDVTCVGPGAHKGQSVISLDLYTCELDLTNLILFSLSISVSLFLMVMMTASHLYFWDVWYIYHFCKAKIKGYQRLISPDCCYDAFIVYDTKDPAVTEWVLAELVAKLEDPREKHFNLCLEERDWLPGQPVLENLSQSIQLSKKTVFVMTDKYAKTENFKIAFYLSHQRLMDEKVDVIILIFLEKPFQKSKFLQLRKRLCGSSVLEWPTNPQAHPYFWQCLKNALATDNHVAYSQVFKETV
Method: (§1) HEK-Blue™ TLR7 and TLR8 cells (InvivoGen) were designed to assess the stimulation of TLR7 and TLR8 by monitoring the activation of NF-κB and AP-1. Compound B-1-SNE samples were diluted 1:2 across an 8-point titration in diluent buffer histidine/PS-20 in a sterile V-bottom plate. 20 μL of samples were transferred to corresponding wells of two flat bottom assay plates. Media was aspirated from HEK-Blue™ human TLR 7 and TLR 8 cells (T-75 flasks) and gently rinsed with pre-warmed (37° C.) DPBS for a total volume of 5 mL/flask. The DPBS was gently removed from the cells and cells were gently manually dislodged and resuspended in 2 mL of DPBS. Cell assay suspensions were then prepared at approximately 2.2×10^5 cells per mL of HEK-Blue™ detection medium (InvivoGen). 180 μL of cell suspension in detection medium was added to each well of the two flat bottom assay plates containing the diluted Compound B-1-SNE samples for a final dilution of sample equaling 1:10 (180 μL of cell suspension in detection medium and 20 μL of sample). The cells were then incubated at 37° C. in 5% CO2 for 20 hrs. The reporter gene, NF-Kb, induces the production of secreted embryonic alkaline phosphatase (SEAP) when stimulated and can be monitored using the vendor supplied SEAP detection kit. SEAP colorimetric changes were read at an absorbance of 640 nm using a SpectroMax Stakmax plate reader. […] EC50 values were calculated based on total Compound B-1-SNE concentration using GraphPad Prism Software and analyzed using agonist vs. response variable slope (four parameters) least squares fit.
(§2) Further to the description in Example 10, a cell-based activation system was used to assess activity of the Compound-formulated nanoemulsion systems, prepared as described in examples, supra. HEK-Blue™ TLR7 and TLR8 cells (InvivoGen) were designed to assess the stimulation of TLR7 and TLR8 by monitoring the activation of NF-κB and AP-1. Compound-SNE samples were diluted 1:2 across an 8-point titration in diluent buffer histidine/PS-20 in a sterile V-bottom plate. 20 μL of samples were transferred to corresponding wells of two flat bottom assay plates. Media was aspirated from HEK-Blue™ human TLR 7 and TLR 8 cells (T-75 flasks) and gently rinsed with pre-warmed (37° C.) DPBS for a total volume of 5 mL/flask. The DPBS was gently removed from the cells and cells were gently manually dislodged and resuspended in 2 mL of DPBS. Cell assay suspensions were then prepared at approximately 2.2×10^5 cells per mL of HEK-Blue™ detection medium (InvivoGen). 180 μL of cell suspension in detection medium was added to each well of the two flat bottom assay plates containing the diluted Compound-SNE samples for a final dilution of sample equaling 1:10 (180 μL of cell suspension in detection medium and 20 μL of sample). The cells were then incubated at 37° C. in 5% CO2 for 20 hrs. The reporter gene, NF-Kb, induces the production of secreted embryonic alkaline phosphatase (SLAP) when stimulated and can be monitored using the vendor supplied SLAP detection kit. SLAP colorimetric changes were read at an absorbance of 640 nm using a SpectroMax Stakmax plate reader. EC50s were calculated based on Compound concentration only, not total Compound-SNE concentration (Table 6) using GraphPad Prism Software and analyzed using agonist vs. response variable slope (four parameters) least squares fit.

human TLR8 = biological target: T2, human TLR8 (Homo sapiens, UniProt Q9NR97); test: Cell-based TLR 7/8 assay, HEK-Blue TLR8 cells (SEAP reporter); conditions: based on Compound concentration only; Compounds formulated as SNEs; read-out: huTLR8 EC50 (converted)
T2 construct: host or cells: HEK-Blue 293 cells expressing human TLR8
T2 sequence (Q9NR97 27-1041): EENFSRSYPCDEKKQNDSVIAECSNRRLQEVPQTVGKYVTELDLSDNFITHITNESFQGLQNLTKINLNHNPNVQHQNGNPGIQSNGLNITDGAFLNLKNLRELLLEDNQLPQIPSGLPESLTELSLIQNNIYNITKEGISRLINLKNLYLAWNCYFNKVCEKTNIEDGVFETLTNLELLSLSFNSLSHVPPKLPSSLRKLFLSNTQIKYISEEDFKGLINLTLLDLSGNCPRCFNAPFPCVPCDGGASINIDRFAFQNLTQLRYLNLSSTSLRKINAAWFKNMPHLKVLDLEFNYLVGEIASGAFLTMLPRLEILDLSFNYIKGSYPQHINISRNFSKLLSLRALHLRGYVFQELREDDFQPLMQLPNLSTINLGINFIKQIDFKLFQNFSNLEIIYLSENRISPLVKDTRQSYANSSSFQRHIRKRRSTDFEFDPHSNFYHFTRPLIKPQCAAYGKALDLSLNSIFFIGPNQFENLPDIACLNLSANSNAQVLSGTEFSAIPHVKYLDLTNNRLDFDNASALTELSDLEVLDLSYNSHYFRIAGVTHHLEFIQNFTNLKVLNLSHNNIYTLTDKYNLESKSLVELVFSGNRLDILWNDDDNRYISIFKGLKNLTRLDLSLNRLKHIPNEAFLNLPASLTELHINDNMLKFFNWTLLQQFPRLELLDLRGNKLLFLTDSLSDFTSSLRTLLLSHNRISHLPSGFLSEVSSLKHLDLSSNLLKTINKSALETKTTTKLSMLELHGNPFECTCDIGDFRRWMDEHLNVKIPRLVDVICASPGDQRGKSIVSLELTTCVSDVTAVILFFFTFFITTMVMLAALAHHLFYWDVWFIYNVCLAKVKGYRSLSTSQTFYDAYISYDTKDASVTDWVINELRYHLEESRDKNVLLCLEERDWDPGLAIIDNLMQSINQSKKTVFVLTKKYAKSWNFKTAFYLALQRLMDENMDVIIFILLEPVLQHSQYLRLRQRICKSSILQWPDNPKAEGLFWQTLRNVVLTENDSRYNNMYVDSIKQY
Method: as §1, §2

EC50 (human TLR7) | EC50 (human TLR8) | SMILES
14.9 µM | 5.37 µM | CCCCCCCCCCCCCCCCCC(=O)NCCCCC(=O)N1CCN(c2cc(OC)c(Cn3cc4nc(N)nc(NCCCC)c4n3)c(OC)c2)CC1 [Compound A-1, N-(5-(4-(4-((5-amino-7-(butylamino)-2H-pyrazolo[4,3-d]pyrimidin-2-yl)methyl)-3,5-dimethoxyphenyl)piperazin-1-yl)-5-oxopentyl)stearamide]
7.53 µM | 0.454 µM | CCCCCCCCCCCCCCCCCC(=O)NCCCCC(=O)N1CCN(c2cc(OC)c(Cn3cc4nc(N)nc(N[C@H](CO)CCC)c4n3)c(OC)c2)CC1 [Compound A-2, (S)—N-(5-(4-(4-((5-amino-7-((1-hydroxypentan-2-yl)amino)-2H-pyrazolo[4,3-d]pyrimidin-2-yl)methyl)-3,5-dimethoxyphenyl)piperazin-1-yl)-5-oxopentyl)stearamide]
0.837 µM | 0.554 µM | CCCCCCCCCCCCCCCCCC(=O)NCCCCC(=O)N1CCN(c2ccc(Cn3cc4nc(N)nc(NCCCC)c4n3)c(OC)c2)CC1 [Compound B-1, N-(5-(4-(4-((5-amino-7-(butylamino)-2H-pyrazolo[4,3-d]pyrimidin-2-yl)methyl)-3-methoxyphenyl)piperazin-1-yl)-5-oxopentyl)stearamide]
0.208 µM | 0.306 µM | CCCCCCCCCCCCCC(=O)NCCCCC(=O)N1CCN(c2ccc(Cn3cc4nc(N)nc(NCCCC)c4n3)c(OC)c2)CC1 [Compound B-2, N-(5-(4-(4-((5-amino-7-(butylamino)-2H-pyrazolo[4,3-d]pyrimidin-2-yl)methyl)-3-methoxyphenyl)piperazin-1-yl)-5-oxopentyl)tetradecanamide]
0.155 µM | 0.129 µM | CCCCCCCC/C=C\CCCCCCCC(=O)NCCCCC(=O)N1CCN(c2ccc(Cn3cc4nc(N)nc(NCCCC)c4n3)c(OC)c2)CC1 [Compound B-3, N-(5-(4-(4-((5-amino-7-(butylamino)-2H-pyrazolo[4,3-d]pyrimidin-2-yl)methyl)-3-methoxyphenyl)piperazin-1-yl)-5-oxopentyl)oleamide]
0.389 µM | 0.389 µM | CCCCC/C=C\C/C=C\CCCCCCCC(=O)NCCCCC(=O)N1CCN(c2ccc(Cn3cc4nc(N)nc(NCCCC)c4n3)c(OC)c2)CC1 [Compound B-4, (9Z,12Z)—N-(5-(4-(4-((5-amino-7-(butylamino)-2H-pyrazolo[4,3-d]pyrimidin-2-yl)methyl)-3-methoxyphenyl)piperazin-1-yl)-5-oxopentyl)octadeca-9,12-dienamide]
13.4 µM | 4.21 µM | CCCCCCCCCCCCCCCCCC(=O)NCCCCC(=O)N1CCCN(c2ccc(Cn3cc4nc(N)nc(NCCCC)c4n3)c(OC)c2)CC1 [Compound B-5, N-(5-(4-(4-((5-amino-7-(butylamino)-2H-pyrazolo[4,3-d]pyrimidin-2-yl)methyl)-3-methoxyphenyl)-1,4-diazepan-1-yl)-5-oxopentyl)stearamide]
4.19 µM | 2.59 µM | CCCCCCCCCCCCCCCCCC(=O)NCCCCC(=O)N1CCC(c2ccc(Cn3cc4nc(N)nc(NCCCC)c4n3)c(OC)c2)CC1 [Compound B-6, N-(5-(4-(4-((5-amino-7-(butylamino)-2H-pyrazolo[4,3-d]pyrimidin-2-yl)methyl)-3-methoxyphenyl)piperidin-1-yl)-5-oxopentyl)stearamide]
8.43 µM | 3.39 µM | CCCCCCCCCCCCCCCCCC(=O)NCCCCC(=O)N1CC(c2ccc(Cn3cc4nc(N)nc(NCCCC)c4n3)c(OC)c2)C1 [Compound B-7, N-(5-(3-(4-((5-amino-7-(butylamino)-2H-pyrazolo[4,3-d]pyrimidin-2-yl)methyl)-3-methoxyphenyl)azetidin-1-yl)-5-oxopentyl)stearamide]
64.7 µM | 54 µM | CCCCCCCCCCCCCCCCCC(=O)NCCCNC(=O)C1CCN(c2ccc(Cn3cc4nc(N)nc(NCCCC)c4n3)c(OC)c2)CC1 [Compound B-8, 1-(4-((5-amino-7-(butylamino)-2H-pyrazolo[4,3-d]pyrimidin-2-yl)methyl)-3-methoxyphenyl)-N-(3-stearamidopropyl)piperidine-4-carboxamide]
117 µM | 73.6 µM | CCCCCCCCCCCCCCCCNC(=O)[C@H]1C[C@@H](CC(=O)N2CCN(c3ccc(Cn4cc5nc(N)nc(NCCCC)c5n4)c(OC)c3)CC2)C1 [Compound B-10, (1s,3s)-3-(2-(4-(4-((5-amino-7-(butylamino)-2H-pyrazolo[4,3-d]pyrimidin-2-yl)methyl)-3-methoxyphenyl)piperazin-1-yl)-2-oxoethyl)-N-hexadecylcyclobutane-1-carboxamide]
